Experimental findings from patent publication US20040121410A1, “Pain signaling molecules” (priority 2002, published 2004) are described below.

Read-outs that look alike come from different tables or passages of the source. Where a SMILES comes first, the peptide text is derived from it. Where no end group is shown, it is not given here. [ ]: non-standard residue; d: D form. pGlu = O=C1CC[C@@H](C(=O)O)N1 Some results are limits rather than exact numbers.

In one assay the target is T1, MrgA1 (Mus musculus, UniProt Q91WW5).
T1 construct: expressed in transfected cells
T1 sequence (Q91WW5 1-304): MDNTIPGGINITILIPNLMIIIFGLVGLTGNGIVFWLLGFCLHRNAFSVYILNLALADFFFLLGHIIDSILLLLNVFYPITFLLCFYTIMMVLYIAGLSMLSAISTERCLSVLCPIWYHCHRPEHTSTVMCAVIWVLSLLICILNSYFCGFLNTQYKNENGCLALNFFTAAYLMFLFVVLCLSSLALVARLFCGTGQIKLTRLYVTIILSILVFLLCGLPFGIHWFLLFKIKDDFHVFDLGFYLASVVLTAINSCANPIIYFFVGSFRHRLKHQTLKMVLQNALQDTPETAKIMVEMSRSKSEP
Description: calcium-mobilization assay (FLEXstation, Fura-2/AM) in HEK-MrgA1 cells. The class given is cell-based. As to the method:
(§1) To address the questions of the ligand selectivity of the MrgC11 receptor, human embryonic kidney (HEK) 293 cells stably expressing either MrgA1 or MrgC11 were established. Neuropeptides were screened to identify ligands and agonists.
(§2) HEK293 cells were transfected with cDNA encoding the MrgAl-GFP, mNPFF2-GFP or MrgC11-GFP in pcDNA3.1/Zio(+) plasmid (Invitrogen) using the FuGENE6 transfection reagent (Roche Molecular Biomolecules). The transfected cells were selected with 400 μg/ml zeocin in DMEM supplemented with 10% FBS. Each cloned cell was further selected for membrane localization of receptor-GFP fusion protiens.
(§3) The selected cells were maintained in the same medium supplemented with 200 μg/ml zeocin. The stable cell lines were designated HEK-MrgA1, HEK-NPFF2 and HEK-MrgC11.
(§4) To identify putative ligands for MrgC11 and MrgA1 receptors, HEK-MrgC11 or HEKMrgA1 stable cell lines were screened in a calcium-mobilization assay using a fluorescence-imaging plate reader (FLEXstation). Briefly, HEK-MrgA1 or HEK-MrgC11 were plated in 96-black-well plates (Corning) and grown to confluence. After incubation with Fura-2/AM for >20 min, cells were washed and equilibrated for 20 min with HBSS (Hanks' balanced salt solution) assay buffer. The fluorescence emission caused by intracellular calcium mobilization elicited by agonists was determined by using a fluorometric imaging plate reader, Flexstation (Molecular Devices). All peptides were from Phoenix Pharmaceuticals (St. Joseph, Mo.), Bachem, American Peptide (Sunnyvale, Calif.), or Sigma.

Another assay concerns the target T2, MrgC11 (Mus musculus, UniProt Q8CIP3).
T2 construct: A full-length MrgC11 cDNA was cloned from the newborn DRG cDNA library; expressed in transfected cells
T2 sequence (Q8CIP3 1-322): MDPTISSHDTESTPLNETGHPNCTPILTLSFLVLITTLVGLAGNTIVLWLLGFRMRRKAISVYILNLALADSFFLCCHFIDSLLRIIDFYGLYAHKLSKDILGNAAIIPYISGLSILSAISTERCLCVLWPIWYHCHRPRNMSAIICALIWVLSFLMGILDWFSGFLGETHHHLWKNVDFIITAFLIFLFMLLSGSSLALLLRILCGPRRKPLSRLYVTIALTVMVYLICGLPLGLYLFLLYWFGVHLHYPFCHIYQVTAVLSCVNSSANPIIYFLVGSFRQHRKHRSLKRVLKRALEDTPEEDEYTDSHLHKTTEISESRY
Put plainly: calcium-mobilization assay (FLEXstation, Fura-2/AM) in HEK-MrgC11 cells. Type of assay: cell-based. As to conditions: for activation of MrgC11 (in words): calcium response. The method, then: as §1, §2, §3, §4

The mark [1] stands for this setting: Table 1, HEK-MrgA1 cells, FLEXstation assay, means ± SEM, triplicate, Inactive = no activation detected at concentrations up to 10 mM.
Setting [2] is: Table 1, HEK-MrgC11 cells, FLEXstation assay, means ± SEM, triplicate, Inactive = no activation detected at concentrations up to 10 mM, read-out: EC50 MrgC11.
The mark [3] stands for this setting: Table 2, chirally modified FMRFa peptides, HEK-MrgA1 cells, mean ± SEM, triplicate, read-out: EC50 MrgA1.
Where [4] appears, read: Table 2, chirally modified FMRFa peptides, HEK-MrgC11 cells, mean ± SEM, triplicate, read-out: EC50 MrgC11.
The mark [5] stands for this setting: Table 2, chirally modified FMRFa peptides, HEK-MrgA1 cells, mean ± SEM, triplicate.

For the compound “MPHSFANLPLRF-NH2 [RFRP-1] [listing 1 of 2 here]”, the “EC50 MrgA1” value on MrgA1 (setting [1]) is given as “Inactive”.
For `CSCC[C@H](NC(=O)[C@H](Cc1ccccc1)NC(=O)CNC(=O)CNC(=O)[C@@H](N)Cc1ccc(O)cc1)C(=O)N[C@@H](CCCNC(=N)N)C(=O)N[C@@H](CCCNC(=N)N)C(=O)N[C@H](C(=O)NCC(=O)N[C@@H](CCCNC(=N)N)C(=O)N1CCC[C@H]1C(=O)N[C@@H](CCC(=O)O)C(=O)N[C@@H](Cc1c[nH]c2ccccc12)C(=O)N[C@@H](Cc1c[nH]c2ccccc12)C(=O)N[C@@H](CCSC)C(=O)N[C@@H](CC(=O)O)C(=O)N[C@@H](Cc1ccc(O)cc1)C(=O)N[C@@H](CCC(N)=O)C(=O)N[C@@H](CCCCN)C(=O)N[C@@H](CCCNC(=N)N)C(=O)N[C@@H](Cc1ccc(O)cc1)C(=O)NCC(=O)O)C(C)C` [BAM-22P], the EC50 (usually the concentration giving half of the maximal effect) at MrgC11 is 26 ± 10 nM; at MrgA1, 2540 nM.
Consider `CC(C)C[C@H](NC(=O)[C@@H](N)Cc1ccccc1)C(=O)N[C@@H](Cc1ccccc1)C(=O)N[C@@H](CCC(N)=O)C(=O)N1CCC[C@H]1C(=O)N[C@@H](CCC(N)=O)C(=O)N[C@@H](CCCN=C(N)N)C(=O)N[C@@H](Cc1ccccc1)C(N)=O` [NPFF], for which the figures for the EC50 at MrgC11 and at MrgA1 were 54 ± 5 nM and 2150 nM, respectively.
For `CC(C)C[C@H](NC(=O)[C@H](CC(N)=O)NC(=O)[C@@H]1CCCN1C(=O)[C@@H](N)C(C)C)C(=O)N1CCC[C@H]1C(=O)N[C@@H](CCC(N)=O)C(=O)N[C@@H](CCCNC(=N)N)C(=O)N[C@@H](Cc1ccccc1)C(N)=O` [RFRP-3], at MrgC11 (setting [2]), the concentration for a half-maximal effect (EC50) was found to be 113 ± 5 nM. In addition, the “EC50 MrgA1” value on MrgA1 (setting [1]) is “Inactive”.
For `CSCC[C@H](NC(=O)[C@@H](N)Cc1ccccc1)C(=O)N[C@@H](CCCNC(=N)N)C(=O)N[C@H](Cc1ccccc1)C(N)=O` [F-M-R-(D)Fa], the “EC50 MrgC11, nM” value at MrgC11 (Table 2, chirally modified FMRFa peptides, HEK-MrgC11 cells, mean ± SEM, triplicate) is “Inactive”. For the same compound, on MrgA1 (setting [3]), the half-maximal effective concentration (EC50) was 643 ± 80 nM.
On to `CSCC[C@@H](NC(=O)[C@@H](N)Cc1ccccc1)C(=O)N[C@@H](CCCNC(=N)N)C(=O)N[C@@H](Cc1ccccc1)C(N)=O` [F-(D)M-R-Fa], for which the EC50 is 11 ± 4 nM at MrgC11 (setting [4]) and 1260 nM at MrgA1 (setting [3]).
Consider β-MSH, for which the “activation of MrgC11 (in words)” value on MrgC11 (HEK-MrgC11 cells) is on record as “not activated”.
Regarding YGGFMRF-NH2 [Met-ENK-RFamide], the concentration for a half-maximal effect (EC50) amounted to 133 ± 20 nM at MrgC11 and 5250 nM on MrgA1.
As to KHEYLRF-NH2 [AF-2], the EC50 at MrgC11 came to 130 ± 24 nM. Also, the “EC50 MrgA1” value on MrgA1 (setting [1]) is recorded as “Inactive”.
For TPDINPAWYTGRGIRPVGRF-NH2 [PrRP-20], at MrgC11 (setting [2]), the EC50 was found to be 144 ± 18 nM. Also, the “EC50 MrgA1” value at MrgA1 (setting [1]) is “Inactive”.
As for `N=C(N)NCCC[C@H](N)C(=O)N[C@@H](Cc1ccccc1)C(N)=O` [R-Fa], on MrgC11, the EC50 was 460 ± 35 nM. The “EC50 MrgA1, nM” value is given as “Inactive” at MrgA1 (setting [5]) and “not able to activate” at MrgA1 (Table 2, chirally modified FMRFa peptides, HEK-MrgA1 cells, mean ± SEM, triplicate, listed as RFa).
For `N=C(N)NCCC[C@H](NC(=O)CNC(=O)[C@@H]1CCC(=O)N1)C(=O)N[C@@H](Cc1ccccc1)C(N)=O` [AnthoRF-amide] ([pGlu]GRF-NH2), on MrgC11 (setting [2]), the 50% effective concentration (EC50) was 16 ± 6 nM. Also, the “EC50 MrgA1” value on MrgA1 (setting [1]) is listed as “Inactive”.
Take `CC(C)C[C@H](NC(=O)CNC(=O)[C@H](Cc1ccccc1)NC(=O)[C@H](CO)NC(=O)[C@H](CC(N)=O)NC(=O)[C@H](Cc1c[nH]c2ccccc12)NC(=O)[C@H](CC(N)=O)NC(=O)[C@@H](N)Cc1ccc(O)cc1)C(=O)N[C@@H](CCCNC(=N)N)C(=O)N[C@@H](Cc1ccccc1)C(N)=O` [Kiss(112-121)]: the EC50 at MrgC11 (setting [2]) stood at 50 ± 4 nM. The “EC50 MrgA1” value on MrgA1 (setting [1]) is reported as “Inactive”.
Taken in the same sequence, the figures for `CSCC[C@H](NC(=O)[C@@H](NC(=O)[C@@H](N)Cc1ccc(O)cc1)C(C)C)C(=O)NCC(=O)N[C@@H](Cc1c[nH]cn1)C(=O)N[C@@H](Cc1ccccc1)C(=O)N[C@@H](CCCNC(=N)N)C(=O)N[C@@H](Cc1c[nH]c2ccccc12)C(=O)N[C@@H](CC(=O)O)C(=O)N[C@@H](CCCNC(=N)N)C(=O)N[C@@H](Cc1ccccc1)C(N)=O` [γ1-MSH] were 17 ± 3 nM and “Inactive”.
For YGGFMRF-OH [Met-Enk-RF], at MrgC11, the concentration for a half-maximal effect (EC50) is 545 ± 19 nM. In addition, at MrgA1 (HEK-MrgA1 cells, calcium response), the “activation of MrgA1 (in words)” value was “complete loss of activity”. Also, at MrgA1 (setting [1]), the “EC50 MrgA1” value is listed as “Inactive”.
For the compound IRPKLKWDNQKRYG [Dynnorphin-14], the EC50 on MrgC11 was determined as 22 ± 1 nM. Further, on MrgA1 (setting [1]), the “EC50 MrgA1” value is “Inactive”.
Take `CC(C)C[C@H](NC(=O)CNC(=O)[C@H](Cc1ccccc1)NC(=O)[C@H](CO)NC(=O)[C@H](CC(N)=O)NC(=O)[C@H](Cc1c[nH]c2ccccc12)NC(=O)[C@H](CC(N)=O)NC(=O)[C@H](Cc1ccc(O)cc1)NC(=O)[C@H](CC(N)=O)NC(=O)[C@@H]1CCCN1C(=O)[C@H](CC(C)C)NC(=O)[C@H](CC(=O)O)NC(=O)[C@@H](N)CCCCN)C(=O)N[C@@H](CCCNC(=N)N)C(=O)N[C@@H](Cc1ccccc1)C(N)=O` [Kiss(107-121)]: the EC50 at MrgC11 (setting [2]) stood at 102 ± 24 nM. Also, the “EC50 MrgA1” value at MrgA1 (setting [1]) is “Inactive”.
Take α-MSH: on MrgC11 (HEK-MrgC11 cells), the “activation of MrgC11 (in words)” value is “not activated”.
Take `N=C(N)NCCC[C@H](N)C(=O)N[C@@H](Cc1ccccc1)C(=O)O` [R-F—OH]: the EC50 on MrgC11 (setting [4]) worked out at 632 ± 124 nM. Moreover, the “EC50 MrgA1, nM” value on MrgA1 (setting [5]) is recorded as “Inactive”; at MrgA1 (Table 2, chirally modified FMRFa peptides, HEK-MrgA1 cells, mean ± SEM, triplicate, listed as RF-OH), “not able to activate”.
On to VGRPEWWMDYQKRY-NH2 [BAM-15-amide], for which the EC50 came out at 479 ± 14 nM at MrgC11 (setting [2]) and 8770 nM on MrgA1 (Table 1, HEK-MrgA1 cells, FLEXstation assay, means ± SEM, triplicate, Inactive = no activation detected at concentrations up to 10 mM, read-out: EC50 MrgA1).
As to YGGFMRRVGRPEWWMDYQKRYGGFL [BAM3200], the EC50 was 300 ± 124 nM on MrgC11 and > 10000 nM on MrgA1.
`CSCC[C@H](NC(=O)[C@H](N)Cc1ccccc1)C(=O)N[C@@H](CCCNC(=N)N)C(=O)N[C@@H](Cc1ccccc1)C(N)=O` [(D)F-M-R-Fa]: the concentration for a half-maximal effect (EC50) at MrgC11 (setting [4]) amounted to 108 ± 1 nM; at MrgA1 (setting [3]) it was 882 ± 55 nM.
As for SGQSWRPQGRF-NH2 [ACEP-1], the concentration for a half-maximal effect (EC50) on MrgC11 (setting [2]) was determined as 46 ± 12 nM. Also, at MrgA1 (setting [1]), the “EC50 MrgA1” value is on record as “Inactive”.
“MPHSFANLPLRF-NH2 [RFRP-1] [listing 2 of 2 here]”: at MrgC11 (setting [2]), the concentration giving a half-maximal response (EC50) was found to be 1240 nM.
With AGEGLNSQFWSLAAPQRF-NH2 [NPAF], the EC50 at MrgC11 amounted to 282 ± 30 nM. Moreover, on MrgA1 (setting [1]), the “EC50 MrgA1” value is listed as “Inactive”.
